Values of other authors, collected in patent publication US9024067B2, “Process for preparing carboxylic acid amides useful in the treatment of muscular disorders” (Canbex Therapeutics Limited, priority 2009, dated 2015).

Tested on: spasticity in CREAE mice
Settings: initial studies (WO2005/080316)

In the case of `CC(CO)NC(=O)c1cccc(/C=C\CCCC(=O)N(C)C)c1` (stereo not shown) [VSN-16], the effect on spasticity is listed as “marked effect on spasticity”.
